We go through six compounds from patent US8969026B2, “Polymeric reverse micelles as selective extraction agents and related methods of MALDI-MS analysis” (University of Massachusetts, priority 2007, dated 2015).

No end group written: not given here.

For data set [1] the following is noted: fluorescent pI markers, cited from earlier work.
Data set [2] can be described thus: Liquid-liquid extraction of pI markers by reverse micelles of homopolymer 3 in toluene, fluorescence of the aqueous phase. Format: physicochemical. The conditions noted are these: for extraction efficiency: aqueous pH 6.0, reverse micelles present in the toluene phase. The text has this: The polymeric reverse micelle-like nanoassemblies have carboxylate groups in their interiors; therefore, positively charged pI markers are expected to be extracted. Upon extraction, the concentrations of the pI markers left in the aqueous phase were quantitatively determined by fluorescence spectroscopy. Analysis of the organic phase was difficult because the fluorescence spectrum of the polymer is very broad in this phase, and in many cases overlaps with the signal from the pI markers. As an example of the data from the aqueous solution, the fluorescence spectra of pI marker 2, before (solid line) and after extraction (dashed line), are shown in FIG. 3. […] The concentration of the pI marker remaining in the aqueous phase can be quantified, and in this example, it is determined that 46% of pI marker 2 remains, which means that 54% of it is extracted into the organic phase when the aqueous solution pH is 1.9. It is not surprising that most of this compound is extracted under these conditions. This marker hag a pI value of 3.0, and at an aqueous solution pH of 1.9, most of this compound is positively charged and therefore interacts favorably with the negatively-charged interior of the polymeric reverse micelles.
(§1) A two-phase liquid-liquid extraction protocol that was previously developed was employed. […] The top (organic) layer was removed and the bottom (aqueous) layer was analyzed by fluorescence spectroscopy. […]
(§2) The amount of pI marker left in the bottom (aqueous) layer after extraction was determined on a Photon Technology International fluorometer (Ontario, Canada). Analysis of the organic phase was difficult because the fluorescence spectrum of the polymer in this phase was very broad, and in many cases overlapped with the signal from the pI markers. The excitation and emission wavelengths for each pI marker were chosen to maximize the fluorescence signal. […] For most of the pI markers, the fluorescence intensity was very low under more acidic conditions, making it difficult to collect data at these lower pHs. The fluorescence intensity of the aqueous phase after a given extraction was measured, and in each case the fluorescence intensity was used to determine the concentration of the pI marker remaining in the aqueous phase after the extraction. The amount of pI marker that was extracted by the reverse micelles was then calculated by subtracting the remaining aqueous phase concentration from the initial concentration (1×10^−6 M). The fluorescence measurements were repeated at least 3 times for each extracted sample and the average values are reported.

A short description of data set [3]: Control extraction of pI markers into toluene alone (no polymer). The note with it: no reverse micelles / absence of polymer; pH independent. Format: physicochemical. The method, then:
Previously, it was shown for a series of peptides that charge complementarity exerts an important influence on the extraction process with these amphiphilic homopolymers. (See, M. Y. Combariza, E. N. Savariar, D. R. Vutukuri, S. Thayumanavan and R. W. Vachet, Anal. Chem. 2007, 79, 7124-7130.) Here, the importance of two other factors—hydrophobicity and aqueous solution pH—are assessed. Hydrophobicity might affect the extraction efficiency to some degree due to the toluene phase that surrounds the reverse micelles and the hydrocarbon functionality on the periphery of the reverse micelles. In order to investigate this effect, extractions of pI markers with different hydrophobicities were performed. As an example of the effect of hydrophobicity, the results from the extraction of two pI markers (4 and 7) at an aqueous phase pH of 6.0 are shown in FIG. 4. […]
as §1
as §2, with “The amount of pI marker that was extracted by the reverse micelles was then calculated by subtracting the remaining aqueous phase concentration from the initial concentration (1×10^−6 M). The fluorescence measurements were repeated at least 3 times for each extracted sample and the average values are reported.” left out

Data set [4] is described as follows: pH-dependent biphasic extraction of a peptide mixture with inverse micelles of polymer 1 in toluene, MALDI-MS ion abundance ratio. Format: physicochemical. The conditions noted are these: extraction at pH 7.1 followed by extraction at pH 5.5, organic phase.
Test in data set [5]: as above
Format: physicochemical. The note with it: polymer 1 inverse micelles in toluene, K = Iorg/Iaq, [M+H]+ signal, [M+K]+ for spinorphin and β-amyloid, at least 4 replicates; for Ion abundance ratio (K ± sM) pH 4.0: aqueous pH 4.0; for Ion abundance ratio (K ± sM) pH 7.1: aqueous pH 7.1; for Ion abundance ratio (K ± sM) pH 9.0: aqueous pH 9.0. The text has this: The net charge within the inverse micelle of 1 is negative, affording a selective extraction of positively-charged peptides. In a typical experiment, a toluene solution containing 1 was mixed with an aqueous solution containing a mixture of peptides. After vortexing this mixture, the organic layer was separated and analyzed using MALDI-MS. […] Because the aqueous solution was buffered at a pH of 7.1, peptides with pI values above 7.1 were expected to be sequestered into the interior of the inverse micelles, while peptides with pI values below 7.1 would be mostly excluded based on Coulombic repulsion.
The ion abundance ratio is related to the extraction capacity of the polymer, and can be defined as the ratio of the MALDI ion abundance of the peptide in the organic phase that contains the inverse micelles (Iorg) to the ion abundance of the peptide remaining in the aqueous phase (Iaq) (K=Iorg/Iaq). These experiments were performed with the hypothesis that the extraction would be based on electrostatic interaction between the polymer and the peptide. To test this premise further, two control experiments were carried out. […] Therefore, a two-phase extraction experiment was done in the absence of homopolymer 1, and no peptide extraction into the organic phase was observed. Second, peptide extractions using a polymer without the negatively-charged functionality were performed. Polymer 2 contains charge-neutral pentaethyleneglycol functionalities instead of the carboxylic acid moieties. […] These two results are consistent with the hypothesis that the extraction is based on electrostatics.
Without limitation to any one theory or mode of operation, the pH of the overall aqueous solution is also likely to dictate the pH of the hydrated interiors of the inverse micelle where the binding takes place. Accordingly, extractions at three different pHs: 4.0, 7.1, and 9.0 were carried out; the results of these experiments are listed in Table 1. […] The results from experiments at pH 7.1 and 9.0 further support this idea. It should be noted that when the experiment is carried out at pH 9.0, the peptide with a pI of 7.7 is extracted to some extent. Such a result could be attributed to errors associated with aqueous solution pH measuring or to errors in the peptide pI calculation. Nonetheless, the tunability is still significant and therefore is a very useful result.
A Bruker Reflex III time-of-flight mass spectrometer was used to perform MALDI-MS analysis. The mass spectrometer is equipped with a 337-nm nitrogen laser, a 1.0 m flight tube, and a stainless steel sample target. All mass spectra were acquired in reflectron mode using a voltage of 16 kV. All reported spectra represent an average of 70 shots acquired at 30% laser power. The accelerating voltage was set to 20 kV.
A typical biphasic extraction procedure involves mixing 200 μL of a toluene solution of homopolymer 1 or 2 (1×10^−4 M) with 1 mL of an aqueous solution of peptide(s) that was buffered to pH ˜7.0 with 50 mM Tris/TrisHCl. The mixture is vortexed for 10 to 120 minutes and centrifuged at 12000 rpm for 30-40 minutes to break the resulting emulsion and separate the organic and aqueous layers. The top (organic) layer is then recovered and dried to obtain a solid residue. The residue is redissolved into 10 μL of THF and sonicated for 10 seconds to promote solubilization. Finally, 20 μL of an α-CHCA matrix solution (0.16 Min 60:40:0.3% THF:H2O:TFA) are added to the sample for a final volume of 30 μL. For MALDI-MS analysis the samples are applied to the target using the dried-droplet method, where 1 μL of the sample/matrix mixture is spotted on a stainless-steel target, and the solvent is evaporated at room temperature. The residual aqueous phase (˜1 mL) after extraction is also examined by MALDI-MS. […]

Data set [6] can be described thus: Extraction of a peptide mixture by positively charged imidazole polymer 4 at pH 4.5, MALDI-MS. Format: physicochemical. The conditions noted are these: each peptide 1.0×10^−6 M. The text has this:
Extraction of peptide mixture by positively charged polymer. Illustrating other embodiments of this invention, positively-charged polymers extract peptides with pI values below the aqueous solution pH. Without limitation, polymers with moieties comprising a positively charged nitrogenous group can be used with good effect. Representative of such embodiments, an imidazole-substituted polymer, 4, shown below, can be prepared using straight forward synthetic techniques of the sort described herein, and/or as are well-known to those skilled in the art.
At pH 4.5, kinetensin and angiotensin are positively-charged because the pH is below their pI values. […] FIG. 12C provides a mass spectrum of the aqueous phase after extraction at pH 4.5. The positively-charged peptides remain in the aqueous phase after extraction.

The mark [7] stands for this setting: aqueous solution pH 1.9, polymer 3 reverse micelles in toluene.

Take `O=C(O)c1cc(Cl)ccc1NCCO` [pI marker 2]: the pI in data set [1] is 3.0. Moreover, in data set [2] (setting [7]), the “percentage extracted into the organic phase” value amounted to 54% and the “percentage of pI marker remaining in the aqueous phase after extraction” value was 46%. Further, in data set [3], the “percentage extracted into toluene alone” value is reported as “about 6.6±0.6%”.

Consider `O=C(CNc1ccccc1C(=O)O)NCCN1CCOCC1` [pI marker 4], for which the pI in data set [1] is given as 5.1. The extraction efficiency in data set [2] came to 21.5±0.4%. Moreover, in data set [3], the “percentage extracted into toluene alone” value was determined as 8.4±0.6%.

As to `CN(C)CCCNC(=O)c1cc(Cl)ccc1O` [pI marker 7], in data set [1], the Pka1 was 6.80 and the pI is 8.1. In addition, the Pka in data set [1] (second pKa column) is reported as 9.30. This compound also displayed an extraction efficiency in data set [2] of 70±1.6%. Besides, the “percentage extracted into toluene alone” value in data set [3] was determined as 5.9±0.3%.

“EDVGSNKGAIIGLM (listed as Homo sapiens) [β-Amyloid, human peptide purchased from American Peptide Company]”: in data set [4], the “extraction in the second step of the sequential extraction” value is given as “a small amount of β-amyloid was extracted”. In data set [5], the “Ion abundance ratio (K ± sM) pH 4.0” value is listed as 17 ± 6, the “Ion abundance ratio (K ± sM) pH 7.1” value is listed as 0.4 ± 0.2 and the “Ion abundance ratio (K ± sM) pH 9.0” value stood at 0.10 ± 0.07.

LVVYPWT [Spinorphin, LVVYPWT]: the “extraction in the second step of the sequential extraction” value in data set [4] is “extracted into the organic layer”. For the same compound, in data set [5], the “Ion abundance ratio (K ± sM) pH 4.0” value is listed as 36 ± 12, the “Ion abundance ratio (K ± sM) pH 7.1” value was determined as 2.0 ± 1.0 and the “Ion abundance ratio (K ± sM) pH 9.0” value is 1.0 ± 0.5.

Consider “SSEVAGEGDGDSMGHEDLY (listed as Homo sapiens) [Preproenkephalin, human peptide purchased from American Peptide Company]”, for which, in data set [5], the “Ion abundance ratio (K ± sM) pH 4.0” value stood at 2.2 ± 0.9, the “Ion abundance ratio (K ± sM) pH 7.1” value was 0.4 ± 0.1 and the “Ion abundance ratio (K ± sM) pH 9.0” value worked out at 0.12 ± 0.04. Moreover, the “phase distribution after extraction” value in data set [6] was “a small percentage of the preproenkephalin is believed to remain in the aqueous phase”.
